# Patent US20260125375A1 (Pfizer Inc., priority 2022, published 2026)
# How the values were obtained:
# [1] = molecular target: T1, C-CBL (residues 46-435) (Homo sapiens, UniProt P22681); test: Ligand Displacement Assay (LDA), HTRF competitive binding against BODIPY-labeled fluorescent tracer, C-CBL; settings: geometric mean of the number of tests, read-out: C-CBL Ki (nM) GMean
# T1 construct: Purified CBL-B (residues 36-427) and C-CBL (residues 46-435) proteins from baculovirus-infected insect cells; made in house; host or cells: baculovirus-infected insect cells
# T1 sequence (P22681 46-435): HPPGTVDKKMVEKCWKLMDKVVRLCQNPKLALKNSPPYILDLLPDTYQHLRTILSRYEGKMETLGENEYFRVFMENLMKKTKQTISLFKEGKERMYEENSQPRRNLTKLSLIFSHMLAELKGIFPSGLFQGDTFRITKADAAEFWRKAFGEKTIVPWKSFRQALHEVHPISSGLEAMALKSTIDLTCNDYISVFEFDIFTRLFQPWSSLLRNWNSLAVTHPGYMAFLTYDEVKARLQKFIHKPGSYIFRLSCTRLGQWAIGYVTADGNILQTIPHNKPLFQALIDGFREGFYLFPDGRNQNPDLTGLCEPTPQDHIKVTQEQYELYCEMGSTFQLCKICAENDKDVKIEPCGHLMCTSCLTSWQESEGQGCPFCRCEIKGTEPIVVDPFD
# Outline: (§1)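 First, the insect-cell-expressed protein is biotinylated at its amino-terminal AviTag with BirA and coupled to SA-Tb. Next, the tracer KD is determined for each protein. Finally, compounds are titrated three-fold in duplicate […], at 2% DMSO, and Ki is reported as a geometric mean.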
# [2] = molecular target: T2, WT CBL-B (36-427) (Homo sapiens, UniProt Q13191); test: Surface Plasmon Resonance (SPR) assay, binding affinity and kinetics, CBL-B; settings: SPR at 10° C., biotinylated WT CBL-B (36-427) on streptavidin chip; geometric mean; read-out: CBL-B SPR Kd (nM) GMean
# T2 construct: N-terminal biotinylated WT CBL-B (36-427) and C-CBL (46-435) were captured on a streptavidin (SA) coated sensor chip
# Outline: (§2)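 Biotinylated WT CBL-B (36-427) or C-CBL (46-435) captured on streptavidin chip (~5000–6000 RU); binding at 10° C in HEPES buffer pH 7.2 with 2% DMSO. Multi-cycle: 2-fold, 10-point series from 10 or 100 μM, 90 s association. Single-cycle: 3-fold, 6-point, 0.001–1 μM, 120 s association, >5400 s dissociation.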
# [3] = molecular target: T3, C-CBL (46-435) (Homo sapiens, UniProt P22681); test: Surface Plasmon Resonance (SPR) assay, binding affinity and kinetics, C-CBL; settings: SPR at 10° C., biotinylated C-CBL (46-435) on streptavidin chip; geometric mean; read-out: C-CBL SPR Kd (nM) GMean
# T3 construct: N-terminal biotinylated WT CBL-B (36-427) and C-CBL (46-435) were captured on a streptavidin (SA) coated sensor chip
# T3 sequence (P22681 46-435): T1 sequence (P22681 46-435)
# Outline: as §2
# [4] = molecular target: T4, CBL-B (residues 36-427) (Homo sapiens, UniProt Q13191); test: Ligand Displacement Assay (LDA), HTRF competitive binding against BODIPY-labeled fluorescent tracer, CBL-B; settings: geometric mean of the number of tests, read-out: CBL-B Ki (nM) GMean
# T4 construct: Purified CBL-B (residues 36-427) and C-CBL (residues 46-435) proteins from baculovirus-infected insect cells; made in house; host or cells: baculovirus-infected insect cells
# Outline: as §1
Compound,Ki [1] [nM],Kd [2] [nM],Kd [3] [nM],Ki [4] [nM]
"CC(N[C@H]1CCOC1)c1nc(C(F)(F)F)cc2c(-c3cccc(C4(Cc5nncn5C)COC4)c3)n[nH]c12 (single isomer, unassigned) [Example C81]",18.2,4.6,56.5,6.5
"C[C@@H](c1nc(C(F)(F)F)cc2c(-c3cccc(C4(Cc5nncn5C)COC4)c3)n[nH]c12)N1CC[C@H](F)C1 (single isomer, unassigned) [Example D98]",110,46,217,25.5
"CN1CC[C@H](N(C)c2nc(C(F)(F)F)cc3c(-c4cccc([C@H](c5nncn5C)C5CCC5)c4)n[nH]c23)C1 [Example J12, 3-{3-[(R)-cyclobutyl(4-methyl-4H-1,2,4-triazol-3-yl)methyl]phenyl}-N-methyl-N-[(3S)-1-methylpyrrolidin-3-yl]-5-(trifluoromethyl)-1H-pyrazolo[3,4-c]pyridin-7-amine]",118,16.1,240,16.1
"Cn1cnnc1[C@@H](c1cccc(-c2n[nH]c3c(CNC4CCC4)nc(C(F)(F)F)cc23)c1)C1CCC1 [Example C105, N-{[3-{3-[(R)-cyclobutyl(4-methyl-4H-1,2,4-triazol-3-yl)methyl]phenyl}-5-(trifluoromethyl)-1H-pyrazolo[3,4-c]pyridin-7-yl]methyl}cyclobutanamine]",244,4.2,132,29.4
"C[C@H](N[C@H]1C[C@H](O)C1)c1nc(C(F)(F)F)cc2c(-c3cccc([C@H](c4nncn4C)C4CCC4)c3)n[nH]c12 (single isomer, unassigned) [Example C91]",105,5.1,129,12.7
"Cn1cnnc1[C@@H](c1cccc(-c2n[nH]c3c(CN4C[C@@H](F)[C@@H](F)C4)nc(C(F)(F)F)cc23)c1)C1CCC1 [Example C107, 3-{3-[(R)-cyclobutyl(4-methyl-4H-1,2,4-triazol-3-yl)methyl]phenyl}-7-{[(3R,4S)-3,4-difluoropyrrolidin-1-yl]methyl}-5-(trifluoromethyl)-1H-pyrazolo[3,4-c]pyridine]",363,3.7,158,33.9
"Cn1cnnc1[C@@H](c1cccc(-c2n[nH]c3c(CO)nc(C(F)(F)F)cc23)c1)C1CCC1 [Example K9, [3-{3-[(R)-cyclobutyl(4-methyl-4H-1,2,4-triazol-3-yl)methyl]phenyl}-5-(trifluoromethyl)-1H-pyrazolo[3,4-c]pyridin-7-yl]methanol]",328,12.7,298,45.4
"C[C@@H]1CN([C@H](C)c2nc(C(F)(F)F)cc3c(-c4cccc(C5(Cc6nncn6C)COC5)c4)n[nH]c23)CCO1 (single isomer, unassigned) [Example D50]",30.7,2.6,30.1,9
CCNCc1nc(C(F)(F)F)cc2c(-c3cccc([C@H](c4nncn4C)C4CCC4)c3)n[nH]c12 [Example D81],191,5.6,206,25.7
"C[C@H](c1nc(C(F)(F)F)cc2c(-c3cccc(C4(Cc5nncn5C)COC4)c3)n[nH]c12)N1CCCC1 (single isomer, unassigned) [Example D48]",44.9,9.3,74.6,16.1
"CCC(c1cccc(-c2n[nH]c3cnc(C(F)(F)F)cc23)c1)c1nncn1C (single isomer, unassigned) [Example A2, 3-{3-[(1ξ)-1-(4-methyl-4H-1,2,4-triazol-3-yl)propyl]phenyl}-5-(trifluoromethyl)-1H-pyrazolo[3,4-c]pyridine]",224,35.8,251,80.4
"Cn1cnnc1[C@@H](c1cccc(-c2n[nH]c3c(CN4CC[C@H](F)C4)nc(C(F)(F)F)cc23)c1)C1CCC1 [Example C110, 3-{3-[(R)-cyclobutyl(4-methyl-4H-1,2,4-triazol-3-yl)methyl]phenyl}-7-{[(3S)-3-fluoropyrrolidin-1-yl]methyl}-5-(trifluoromethyl)-1H-pyrazolo[3,4-c]pyridine]",464,6.4,300,50
"CC(CN)c1nc(C(F)(F)F)cc2c(-c3cccc(C4(Cc5nncn5C)COC4)c3)n[nH]c12 (single isomer, unassigned) [Example K7, (2ξ)-2-[3-(3-{3-[(4-methyl-4H-1,2,4-triazol-3-yl)methyl]oxetan-3-yl}phenyl)-5-(trifluoromethyl)-1H-pyrazolo[3,4-c]pyridin-7-yl]propan-1-amine]",97.8,8,94.9,26.6
"CC(CN)c1nc(C(F)(F)F)cc2c(-c3cccc([C@H](c4nncn4C)C4CCC4)c3)n[nH]c12 (single isomer, unassigned) [Example K14]",195,20.6,244,24.8
"CNc1nc(C(F)(F)F)cc2c(-c3cccc(C4(Cc5nncn5C)COC4)c3)n[nH]c12 [Example J8, N-methyl-3-(3-{3-[(4-methyl-4H-1,2,4-triazol-3-yl)methyl]oxetan-3-yl}phenyl)-5-(trifluoromethyl)-1H-pyrazolo[3,4-c]pyridin-7-amine]",251,16.1,136,69.3
"C[C@@H]1CN([C@@H](C)c2nc(C(F)(F)F)cc3c(-c4cccc(C5(Cc6nncn6C)COC5)c4)n[nH]c23)CCO1 (single isomer, unassigned) [Example D49]",104,5.9,82,17.8
"CN[C@@H](C)c1nc(C(F)(F)F)cc2c(-c3cccc(C4(Cc5nncn5C)COC4)c3)n[nH]c12 (single isomer, unassigned) [Example D37]",64.5,7.9,68.6,22.2
"CC(NC1CC2(COC2)C1)c1nc(C(F)(F)F)cc2c(-c3cccc([C@H](c4nncn4C)C4CCC4)c3)n[nH]c12 (single isomer, unassigned) [Example C97]",141,9.6,242,31.8
"Cn1cnnc1[C@@H](c1cccc(-c2n[nH]c3c(CN[C@H]4C[C@@H](O)C4)nc(C(F)(F)F)cc23)c1)C1CCC1 [Example C120, (1s,3s)-3-({[3-{3-[(R)-cyclobutyl(4-methyl-4H-1,2,4-triazol-3-yl)methyl]phenyl}-5-(trifluoromethyl)-1H-pyrazolo[3,4-c]pyridin-7-yl]methyl}amino)cyclobutan-1-ol]",105,11.1,156,13.6
"Cn1cnnc1CC1(c2cccc(-c3n[nH]c4cnc(OC(F)F)cc34)c2)COC1 [Example B10, 5-(difluoromethoxy)-3-(3-{3-[(4-methyl-4H-1,2,4-triazol-3-yl)methyl]oxetan-3-yl}phenyl)-1H-pyrazolo[3,4-c]pyridine]",187,22.2,141,57.8
"Cn1cnnc1[C@@H](c1cccc(-c2n[nH]c3cnc(Cl)cc23)c1)C1CCC1 [Example A3, 5-chloro-3-{3-[(R)-cyclobutyl(4-methyl-4H-1,2,4-triazol-3-yl)methyl]phenyl}-1H-pyrazolo[3,4-c]pyridine]",362,12.9,301,31.1
"Cn1cnnc1[C@@H](c1cccc(-c2n[nH]c3c(CN[C@H]4CCC[C@H]4O)nc(C(F)(F)F)cc23)c1)C1CCC1 [Example C122, (1R,2S)-2-({[3-{3-[(R)-cyclobutyl(4-methyl-4H-1,2,4-triazol-3-yl)methyl]phenyl}-5-(trifluoromethyl)-1H-pyrazolo[3,4-c]pyridin-7-yl]methyl}amino)cyclopentan-1-ol]",294,5.5,146,29.2
"CN[C@H](C)c1nc(C(F)(F)F)cc2c(-c3cccc(C4(Cc5nncn5C)COC4)c3)n[nH]c12 (single isomer, unassigned) [Example D38]",135,10,110,34
